Patent publication US10758534B2 (Vertex Pharmaceuticals Incorporated, priority 2014, dated 2020)
Like-named read-outs stand apart in the source and are kept apart here.

Biological target: T1, F508del (Homo sapiens, UniProt P13569, DEL508-508)
T1 construct: expressed in transfected cells
Test: Protocol 2: FRET membrane potential optical assay (VIPR), identification of correction compounds
Type: cell-based
Outline: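 Correction of the F508del trafficking defect is scored as forskolin (10 μM)/genistein (20 μM)-stimulated Cl^− efflux in NIH3T3 mouse fibroblasts after a 16 hr, 37° C. compound exposure. Depolarization was followed optically using voltage-sensing FRET dyes.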

[1] = Table 3, compounds of Table 1 as modulators of CFTR activity, protocol not stated
[2] = F508del CFTR modulator activity, compounds of Table 1, read-out: EC30

T1 sequence (P13569 with tags, fused parts or gaps DEL508-508): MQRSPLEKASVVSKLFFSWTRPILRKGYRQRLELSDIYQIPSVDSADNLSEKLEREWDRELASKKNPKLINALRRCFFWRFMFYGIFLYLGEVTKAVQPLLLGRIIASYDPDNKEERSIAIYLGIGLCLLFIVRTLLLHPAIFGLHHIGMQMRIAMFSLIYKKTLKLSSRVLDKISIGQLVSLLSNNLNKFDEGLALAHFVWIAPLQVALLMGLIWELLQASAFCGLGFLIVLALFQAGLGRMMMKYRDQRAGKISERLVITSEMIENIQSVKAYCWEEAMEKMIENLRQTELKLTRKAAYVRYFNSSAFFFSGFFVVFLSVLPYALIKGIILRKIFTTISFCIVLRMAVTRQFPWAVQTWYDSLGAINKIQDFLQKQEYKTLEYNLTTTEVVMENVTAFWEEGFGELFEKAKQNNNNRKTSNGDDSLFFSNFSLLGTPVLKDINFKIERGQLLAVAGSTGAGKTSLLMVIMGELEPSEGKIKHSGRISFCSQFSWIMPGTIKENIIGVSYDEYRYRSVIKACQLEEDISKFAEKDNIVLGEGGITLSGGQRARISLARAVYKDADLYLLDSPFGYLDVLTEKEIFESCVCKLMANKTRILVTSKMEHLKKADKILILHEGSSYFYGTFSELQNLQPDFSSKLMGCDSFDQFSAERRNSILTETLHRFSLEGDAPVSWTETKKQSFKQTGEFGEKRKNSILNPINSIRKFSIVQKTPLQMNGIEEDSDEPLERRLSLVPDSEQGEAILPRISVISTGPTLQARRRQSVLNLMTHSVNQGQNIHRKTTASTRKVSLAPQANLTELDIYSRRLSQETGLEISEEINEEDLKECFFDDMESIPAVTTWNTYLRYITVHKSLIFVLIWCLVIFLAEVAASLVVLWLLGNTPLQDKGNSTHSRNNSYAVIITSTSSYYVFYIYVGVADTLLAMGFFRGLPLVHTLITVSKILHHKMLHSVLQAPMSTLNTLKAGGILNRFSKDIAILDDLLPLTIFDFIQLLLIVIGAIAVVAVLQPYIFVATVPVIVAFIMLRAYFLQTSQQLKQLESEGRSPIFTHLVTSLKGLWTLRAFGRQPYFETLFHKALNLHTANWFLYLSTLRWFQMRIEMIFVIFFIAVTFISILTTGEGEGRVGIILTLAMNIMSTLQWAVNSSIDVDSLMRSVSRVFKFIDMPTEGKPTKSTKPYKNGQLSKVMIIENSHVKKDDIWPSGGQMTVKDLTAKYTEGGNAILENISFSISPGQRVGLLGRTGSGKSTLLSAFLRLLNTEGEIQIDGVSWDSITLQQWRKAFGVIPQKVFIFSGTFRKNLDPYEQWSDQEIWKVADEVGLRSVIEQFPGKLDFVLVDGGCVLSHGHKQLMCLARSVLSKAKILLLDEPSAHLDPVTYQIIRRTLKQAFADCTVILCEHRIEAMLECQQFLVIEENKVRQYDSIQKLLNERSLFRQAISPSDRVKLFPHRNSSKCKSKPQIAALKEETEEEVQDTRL

Row | Compound | EC30 [1] | EC30 [2] [µM]
1 | CNc1cccc(S(=O)(=O)NC(=O)c2ccc(C(C)(C)C)nc2Oc2c(C)cc(C)cc2C)n1 [Compound 262, 6-tert-butyl-N-[[6-(methylamino)-2-pyridyl]sulfonyl]-2-(2,4,6-trimethylphenoxy)pyridine-3-carboxamide] | +++ (“+++” means <3 uM) | 
2 | C[C@@H]1CN(c2ncccc2C(=O)NS(=O)(=O)N2CCCC(NCc3ccc(OC(C)(C)C)cc3)C2)C(C)(C)C1 (stereo partly shown) [Compound 2692] |  | 3 to 10
3 | Cc1cc(C)c(Oc2nc(-n3cccn3)ccc2C(=O)NS(=O)(=O)c2cccc(N)n2)c(C)c1 [Compound 564, N-[(6-amino-2-pyridyl)sulfonyl]-6-pyrazol-1-yl-2-(2,4,6-trimethylphenoxy)pyridine-3-carboxamide] | ++ (“++” means between 3 uM and 10 uM) | 
4 | CCOc1ccccc1-c1ccc(C(=O)NS(=O)(=O)N2CC[C@H](N)C2)c(N2C[C@@H](C)CC2(C)C)n1 [Compound 2050, N-[(3S)-3-aminopyrrolidin-1-yl]sulfonyl-6-(2-ethoxyphenyl)-2-[(4S)-2,2,4-trimethylpyrrolidin-1-yl]pyridine-3-carboxamide] |  | < 3
5 | CC(C)Oc1cc(-c2ccc(C(=O)NS(=O)(=O)c3ccn[nH]3)c(N3[C@H](C)CC[C@@H]3C)n2)ccc1Cl [Compound 701, 6-(4-chloro-3-isopropoxy-phenyl)-2-[(2S,5R)-2,5-dimethylpyrrolidin-1-yl]-N-(1H-pyrazol-5-ylsulfonyl)pyridine-3-carboxamide] | +++ (“+++” means <3 uM) | 
6 | CC1(C)CCCc2cc(C(=O)NS(=O)(=O)c3cccc(N)c3)c(-c3ccccc3)nc21 [Compound 685, N-(3-aminophenyl)sulfonyl-8,8-dimethyl-2-phenyl-6,7-dihydro-5H-quinoline-3-carboxamide] | +++ (“+++” means <3 uM) | 
7 | CC(C)COc1cc(F)cc(-c2ccc(C(=O)NS(=O)(=O)c3cccc(N)n3)c(N3CCCC4CC43)n2)c1 (stereo not shown) [Compound 2376, N-[(6-amino-2-pyridyl)sulfonyl]-2-(5-azabicyclo[4.1.0]heptan-5-yl)-6-(3-fluoro-5-isobutoxy-phenyl)pyridine-3-carboxamide] |  | < 3
8 | CC(C)COc1cc(F)cc(-c2ccc(C(=O)NS(=O)(=O)c3cccc(N)n3)c(N3C4CCC3CC4)n2)c1 [Compound 420, N-[(6-amino-2-pyridyl)sulfonyl]-2-(7-azabicyclo[2.2.1]heptan-7-yl)-6-(3-fluoro-5-isobutoxy-phenyl)pyridine-3-carboxamide] | +++ (“+++” means <3 uM) | 
9 | Cc1cc(C)c(Cn2nc(C(C)C)cc2C(=O)NS(=O)(=O)c2cccc(N)c2)c(C)c1 [Compound 566, N-(3-aminophenyl)sulfonyl-5-isopropyl-2-[(2,4,6-trimethylphenyl)methyl]pyrazole-3-carboxamide] | + (“+” means greater than 10 uM) | 
10 | CC1CN(c2ncccc2C(=O)NS(=O)(=O)c2cccc(Nc3cccc(OC(F)(F)F)c3)n2)C(C)(C)C1 (stereo not shown) [Compound 2143, N—[[6-[3-(trifluoromethoxy)anilino]-2-pyridyl]sulfonyl]-2-(2,2,4-trimethylpyrrolidin-1-yl)pyridine-3-carboxamide] |  | < 3
11 | CC1CN(c2ncccc2C(=O)NS(=O)(=O)c2cccc(N3CC4CCCC4C3)n2)C(C)(C)C1 (stereo not shown) [Compound 2340, N—[[6-(3,3a,4,5,6,6a-hexahydro-1H-cyclopenta[c]pyrrol-2-yl)-2-pyridyl]sulfonyl]-2-(2,2,4-trimethylpyrrolidin-1-yl)pyridine-3-carboxamide] |  | < 3
12 | COC(=O)C(C)Oc1ccc(-c2ccc(C(=O)NS(=O)(=O)c3cccc(N)n3)c(N3[C@H](C)CC[C@@H]3C)n2)cn1 (stereo partly drawn) [Compound 723, methyl 2-[[5-[5-[(6-amino-2-pyridyl)sulfonylcarbamoyl]-6-[(2S,5R)-2,5-dimethylpyrrolidin-1-yl]-2-pyridyl]-2-pyridyl]oxy]propanoate] | ++ (“++” means between 3 uM and 10 uM) | 
13 | CCCCOc1cccc(S(=O)(=O)NC(=O)c2cccnc2N2CC(C)CC2(C)C)n1 (stereo not shown) [Compound 2167, N-[(6-butoxy-2-pyridyl)sulfonyl]-2-(2,2,4-trimethylpyrrolidin-1-yl)pyridine-3-carboxamide] |  | < 3
14 | CC(C)COc1cc(F)cc(-c2ccc(C(=O)NS(=O)(=O)c3cccc(N)n3)c(Oc3ccccc3)n2)c1 [Compound 376, N-[(6-amino-2-pyridyl)sulfonyl]-6-(3-fluoro-5-isobutoxy-phenyl)-2-phenoxy-pyridine-3-carboxamide] | +++ (“+++” means <3 uM) | 
15 | Cc1cc(C)c(Oc2nc(-c3ccc(C)c(C)c3)ccc2C(=O)NS(=O)(=O)c2cccc(N)n2)c(C)c1 [Compound 399, N-[(6-amino-2-pyridyl)sulfonyl]-6-(3,4-dimethylphenyl)-2-(2,4,6-trimethylphenoxy)pyridine-3-carboxamide] | +++ (“+++” means <3 uM) | 
16 | CC1CN(c2ncccc2C(=O)NS(=O)(=O)c2cccc(N3CCN(Cc4ccccn4)CC3)n2)C(C)(C)C1 (stereo not shown) [Compound 2504, N—[[6-[4-(2-pyridylmethyl)piperazin-1-yl]-2-pyridyl]sulfonyl]-2-(2,2,4-trimethylpyrrolidin-1-yl)pyridine-3-carboxamide] |  | 3 to 10
17 | Cc1cc(C)c(Cn2c(C(=O)NS(=O)(=O)c3ccccc3)cc3c(F)cccc32)c(C)c1 [Compound 87, N-(benzenesulfonyl)-4-fluoro-1-[(2,4,6-trimethylphenyl)methyl]indole-2-carboxamide] | +++ (“+++” means <3 uM) | 
18 | CC(C)COc1cc(F)cc(-c2ccc(C(=O)NS(=O)(=O)c3ccn[nH]3)c(N3CCC(F)(F)C3)n2)c1 [Compound 565, 2-(3,3-difluoropyrrolidin-1-yl)-6-(3-fluoro-5-isobutoxy-phenyl)-N-(1H-pyrazol-5-ylsulfonyl)pyridine-3-carboxamide] | + (“+” means greater than 10 uM) | 
19 | COC[C@@H]1CCCN1c1nc(-c2cc(F)cc(OCC(C)C)c2)ccc1C(=O)NS(=O)(=O)c1cccc(N)n1 [Compound 719, N-[(6-amino-2-pyridyl)sulfonyl]-6-(3-fluoro-5-isobutoxy-phenyl)-2-[(2S)-2-(methoxymethyl)pyrrolidin-1-yl]pyridine-3-carboxamide] | +++ (“+++” means <3 uM) | 
20 | CC1CN(c2ncccc2C(=O)NS(=O)(=O)c2cccc(NCCCCc3ccccc3)n2)C(C)(C)C1 (stereo not shown) [Compound 2119, N—[[6-(4-phenylbutylamino)-2-pyridyl]sulfonyl]-2-(2,2,4-trimethylpyrrolidin-1-yl)pyridine-3-carboxamide] |  | < 3

Next, values leading:

Row | EC30 [1] | EC30 [2] [µM] | Compound
21 |  | < 3 | CC1CN(c2ncccc2C(=O)NS(=O)(=O)c2cccc(OCc3ccc(F)c(F)c3)n2)C(C)(C)C1 (stereo not shown) [Compound 2533, N—[[6-[(3,4-difluorophenyl)methoxy]-2-pyridyl]sulfonyl]-2-(2,2,4-trimethylpyrrolidin-1-yl)pyridine-3-carboxamide]
22 | +++ (“+++” means <3 uM) |  | CC1CN(c2nc(-c3ccc(OC(C)C)nc3)ccc2C(=O)NS(=O)(=O)c2cccc(N)n2)CC(C)(C)C1 (stereo not shown) [Compound 520, N-[(6-amino-2-pyridyl)sulfonyl]-6-(6-isopropoxy-3-pyridyl)-2-(3,3,5-trimethyl-1-piperidyl)pyridine-3-carboxamide]
23 | +++ (“+++” means <3 uM) |  | CCOc1ccc(-c2nc(N3CC(C)CC3(C)C)c(C(=O)NS(=O)(=O)c3cccc(N)n3)cc2C)cc1 (stereo not shown) [Compound 455, N-[(6-amino-2-pyridyl)sulfonyl]-6-(4-ethoxyphenyl)-5-methyl-2-(2,2,4-trimethylpyrrolidin-1-yl)pyridine-3-carboxamide]
24 |  | < 3 | CC1CN(c2ncccc2C(=O)NS(=O)(=O)c2cccc(Nc3ccc(C(F)(F)F)nc3)n2)C(C)(C)C1 (stereo not shown) [Compound 2466, N—[[6-[[6-(trifluoromethyl)-3-pyridyl]amino]-2-pyridyl]sulfonyl]-2-(2,2,4-trimethylpyrrolidin-1-yl)pyridine-3-carboxamide]
25 |  | < 3 | CCOCCN(C)c1ncc(-c2ccc(C(=O)NS(=O)(=O)c3cccc(N)n3)c(N3C[C@@H](C)CC3(C)C)n2)cc1C [Compound 2682]
26 |  | < 3 | Cc1ccc(-c2ccc(C(=O)NS(=O)(=O)c3ccc[nH]c3=O)c(N3C[C@@H](C)CC3(C)C)n2)c(C)c1 [Compound 2037, 6-(2,4-dimethylphenyl)-N-[(2-oxo-1H-pyridin-3-yl)sulfonyl]-2-[(4S)-2,2,4-trimethylpyrrolidin-1-yl]pyridine-3-carboxamide]
27 |  | < 3 | C[C@@H]1CN(c2nc(-c3ccc(Cl)cc3)ccc2C(=O)NS(=O)(=O)c2ccc[nH]c2=O)C(C)(C)C1 [Compound 2028, 6-(4-chlorophenyl)-N-[(2-oxo-1H-pyridin-3-yl)sulfonyl]-2-[(4S)-2,2,4-trimethylpyrrolidin-1-yl]pyridine-3-carboxamide]
28 |  | 3 to 10 | COc1ccc(CNc2cccc(S(=O)(=O)NC(=O)c3cccnc3N3CC(C)CC3(C)C)n2)cc1OC (stereo not shown) [Compound 2662, N—[[6-[(3,4-dimethoxyphenyl)methylamino]-2-pyridyl]sulfonyl]-2-(2,2,4-trimethylpyrrolidin-1-yl)pyridine-3-carboxamide]
29 |  | 3 to 10 | C[C@@H]1CN(c2nc(-c3cc(F)ccc3O)ccc2C(=O)NS(=O)(=O)c2ccc[nH]c2=O)C(C)(C)C1 [Compound 2295, 6-(5-fluoro-2-hydroxy-phenyl)-N-[(2-oxo-1H-pyridin-3-yl)sulfonyl]-2-[(4S)-2,2,4-trimethylpyrrolidin-1-yl]pyridine-3-carboxamide]
30 |  | < 3 | CCOc1cc(C)cc(-c2ccc(C(=O)NS(=O)(=O)c3cccnc3N)c(N3C[C@@H](C)CC3(C)C)n2)c1 [Compound 2241, N-[(2-amino-3-pyridyl)sulfonyl]-6-(3-ethoxy-5-methyl-phenyl)-2-[(4S)-2,2,4-trimethylpyrrolidin-1-yl]pyridine-3-carboxamide]
31 |  | < 3 | COc1ccc(Oc2cccc(S(=O)(=O)NC(=O)c3cccnc3N3CC(C)CC3(C)C)n2)cc1 (stereo not shown) [Compound 2239, N—[[6-(4-methoxyphenoxy)-2-pyridyl]sulfonyl]-2-(2,2,4-trimethylpyrrolidin-1-yl)pyridine-3-carboxamide]
